# In the supplement of paper PMC10307832:
# What was measured:
# Experiment in all cases: relative viability (nuclei count vs DMSO), 5 days (fraction); higher = more cells survive
# Midostaurin = compound: CO[C@@H]1[C@H](N(C)C(=O)c2ccccc2)C[C@H]2O[C@]1(C)n1c3ccccc3c3c4c(c5c6ccccc6n2c5c31)C(=O)NC4 [Midostaurin]
# Procedure, shortened: (§1)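 On vehicle-anchored 1536-well plates, lung cancer cell lines held overnight at 37 °C were pinned with five library-drug doses (not always all listed) spaced by √10. With no medium change over 5 days, they were then fixed, permeabilised and Hoechst-stained in one step and imaged at 4×. MetaXpress counted nuclei, and viability is the median across plates of treated-well over vehicle-well nuclei. Acceptance needed control CV below 25% and at least one doubling.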
# [1] = compound: COc1cc(-c2nn([C@H]3CC[C@H](N4CCN(C(C)=O)CC4)CC3)c3ncnc(N)c23)ccc1NC(=O)c1cc2ccccc2n1C
# Procedure, shortened: as §1
# [2] = compound: COc1cc(-c2nn([C@H]3CC[C@H](N4CCN(C(C)=O)CC4)CC3)c3ncnc(N)c23)ccc1NC(=O)c1cc2ccccc2n1C + Nc1nc2[nH]cc(CCc3ccc(C(=O)N[C@@H](CCC(=O)O)C(=O)O)cc3)c2c(=O)[nH]1 [Pemetrexed] (partner 0.2 µM)
# Procedure, shortened: (§2)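 A single step with final 0.05% Triton X-100, 1% formaldehyde and 1 ug/ml Hoechst fixed the cells and stained nuclei 5 days after treatment. Lung cancer cell lines in 1536-well plates had been treated by pin tool the day after seeding with one drug alone or a fixed anchor-drug dose plus five library-drug doses (not always all listed) in √10 steps, and nuclei were counted on 4× images. Relative viability is the ratio of nuclei in treated wells to nuclei in vehicle wells, taken as the median of duplicate plates.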
# Midostaurin + Alpelisib = compound: CO[C@@H]1[C@H](N(C)C(=O)c2ccccc2)C[C@H]2O[C@]1(C)n1c3ccccc3c3c4c(c5c6ccccc6n2c5c31)C(=O)NC4 [Midostaurin] + Cc1nc(NC(=O)N2CCC[C@H]2C(N)=O)sc1-c1ccnc(C(C)(C)C(F)(F)F)c1 [Alpelisib] (partner 2 µM)
# Procedure, shortened: as §2
# [3] = compound: COc1cc(-c2nn([C@H]3CC[C@H](N4CCN(C(C)=O)CC4)CC3)c3ncnc(N)c23)ccc1NC(=O)c1cc2ccccc2n1C + Cc1nc(Nc2ncc(C(=O)Nc3c(C)cccc3Cl)s2)cc(N2CCN(CCO)CC2)n1 [Dasatinib] (partner 0.075 µM)
# Procedure, shortened: as §2
Cell Line,relative viability (Midostaurin; 0.01 µM),relative viability (Midostaurin; 0.03162 µM),relative viability (Midostaurin; 0.1 µM),relative viability (Midostaurin; 0.3162 µM),relative viability ([1]; 0.0128 µM),relative viability ([1]; 0.04048 µM),relative viability ([1]; 0.128 µM),relative viability ([1]; 1.28 µM),relative viability ([2]; first compound 0.0128 µM),relative viability ([2]; first compound 0.04048 µM),relative viability ([2]; first compound 0.128 µM),relative viability ([2]; first compound 1.28 µM),relative viability (Midostaurin + Alpelisib; first compound 0.01 µM),relative viability (Midostaurin + Alpelisib; first compound 0.03162 µM),relative viability (Midostaurin + Alpelisib; first compound 0.1 µM),relative viability (Midostaurin + Alpelisib; first compound 0.3162 µM),relative viability ([3]; first compound 0.0128 µM),relative viability ([3]; first compound 0.04048 µM),relative viability ([3]; first compound 0.128 µM),relative viability ([3]; first compound 1.28 µM)
NCI-H1355,1,0.948,1.09,1.04,1.06,0.981,0.943,0.953,1.18,1.06,1.01,0.967,0.827,0.788,0.748,0.814,0.834,0.798,0.719,0.884
NCI-H1395,0.919,0.977,0.88,0.922,0.907,0.847,0.798,0.659,0.819,0.81,0.763,0.59,1.09,1.08,1.3,1.22,0.414,0.464,0.465,0.449
NCI-H1437,0.96,0.999,0.972,0.92,0.979,1.04,0.964,0.906,0.351,0.339,0.287,0.303,1.06,0.995,0.96,0.986,0.428,0.437,0.439,0.302
NCI-H1563,1.09,1.03,0.957,0.769,1.04,1.12,0.971,0.709,0.755,0.778,0.853,0.582,1.09,1.07,0.907,0.78,0.481,0.484,0.532,0.488
NCI-H1651,0.95,1,1.01,1.09,0.97,1.07,0.923,0.968,0.57,0.617,0.57,0.438,1.17,0.92,0.935,0.902,0.426,0.568,0.432,0.458
NCI-H1666,1.03,0.953,0.992,0.888,0.98,0.872,0.947,0.941,0.881,0.803,0.84,0.847,1.06,0.788,0.838,0.732,0.766,0.807,0.802,0.756
NCI-H1734,0.939,0.939,0.998,0.871,1,0.944,0.948,0.783,0.432,0.391,0.406,0.432,0.656,0.618,0.69,0.742,0.429,0.599,0.531,0.516
NCI-H1755,0.983,0.983,0.962,0.977,1.12,0.983,0.937,0.938,0.438,0.43,0.577,0.57,0.921,0.912,0.75,0.694,0.452,0.386,0.43,0.433
NCI-H1792,0.954,0.697,0.929,0.777,0.975,0.878,1.02,0.951,0.883,0.913,0.797,0.729,0.703,0.672,0.63,0.654,0.505,0.731,0.749,0.645
NCI-H1793,1.16,0.848,0.89,0.762,0.904,0.827,0.858,0.649,1.04,0.771,0.871,0.617,0.705,0.601,0.664,0.662,0.392,0.35,0.401,0.346
NCI-H1915,0.951,0.946,0.951,1.03,1.03,0.783,0.957,0.831,0.536,0.452,0.488,0.5,1.04,1.02,1.06,1.06,0.313,0.278,0.271,0.333
NCI-H1944,0.963,0.987,0.931,1.15,1.09,0.983,0.921,0.769,0.65,0.589,0.571,0.6,0.799,0.908,0.887,0.946,0.221,0.203,0.224,0.206
NCI-H1975,0.888,0.971,0.878,0.799,0.958,0.972,0.875,0.479,0.318,0.29,0.297,0.255,0.613,0.628,0.575,0.38,0.345,0.294,0.357,0.24
NCI-H1993,0.948,1.01,1.17,0.802,0.966,0.737,0.834,0.87,0.684,0.543,0.598,0.599,0.714,0.657,0.675,0.643,0.5,0.499,0.428,0.599
NCI-H2009,0.972,0.904,0.961,0.939,1.01,0.861,0.927,0.973,1.03,1.09,1.21,1.19,1.24,1.01,1.05,1.16,0.298,0.267,0.31,0.382
